According to patent publication US5654426A, “Ecteinascidins” (priority 1995, dated 1997):
≈ marks a conversion by molar mass, not a printed value.

What was measured:
[1] = system: P-388 leukemia cells; assay: In vivo antitumor activity in mice vs. P-388 leukemia; conditions: for T/C vs. P-388 / survivors, P-388: mice
[2] = system: LX-1 human lung carcinoma xenograft; assay: In vivo antitumor activity in mice vs. LX-1 human lung carcinoma xenograft
[3] = system: M-5076 ovarian sarcoma; assay: In vivo antitumor activity in mice vs. M-5076 ovarian sarcoma
[4] = system: MX-1 human mammary carcinoma xenograft; assay: In vivo antitumor activity in mice vs. MX-1 human mammary carcinoma xenograft
[5] = system: B-16 melanoma; assay: In vivo antitumor activity in mice vs. B-16 melanoma
[6] = system: Lewis lung carcinoma; assay: In vivo antitumor activity in mice vs. Lewis lung carcinoma
[7] = system: variety of tumor models in mice; assay: In vivo activity against several tumor models in mice
[8] = system: P-388 murine leukemia cell line; assay: In vitro activity against P-388 murine leukemia cell line; assay type: cell-based
Protocol: (§1) Compounds 3 and 5 described herein were tested in vitro against the following cell lines; P-388 murine leukemia cell line; HT-29 human colon cancer cell line; A-549 human lung adenocarcinoma cell line; and CV-1 monkey kidney cell line (non-cancerous); and the IC50 in μg/ml was determined.

[9] = system: A-549 human lung adenocarcinoma cell line; assay: In vitro activity against A-549 human lung adenocarcinoma cell line; assay type: cell-based
Protocol: as §1

[10] = system: HT-29 human colon cancer cell line; assay: In vitro activity against HT-29 human colon cancer cell line; assay type: cell-based
Protocol: as §1

[11] = system: CV-1 monkey kidney cell line; assay: In vitro activity against CV-1 monkey kidney cell line (non-cancerous); assay type: cell-based; conditions: CV-1 monkey kidney (non-cancerous)
Protocol: as §1

[12] = system: L1210 leukemia cells; assay: Inhibition of L1210 leukemia cells in plate assays; assay type: cell-based; conditions: Mus musculus
Protocol: Et's 722 (Compound 6) and 736 (Compound 7)inhibit L1210 leukemia cells to the extent of 90% in plate assays at 2.5 and 5.0 μg/ml, respectively.

[13] = system: DNA; conditions: Lown et al. 1982; Zmijewski et al. 1985; cited from earlier work
[14] = comparison Compound 1 vs. Compound 6

## COc1cc2c(cc1O)CCN[C@]21CSC2c3c(OC(C)=O)c(C)c4c(c3C(COC1=O)N1C2C2NC(Cc3cc(C)c(OC)c(O)c32)[C@@H]1O)OCO4 (stereo partly shown) [Compound 1]
[1]; 12.5 μg/kg day
  T/C vs. P-388: 190
  survivors, P-388: 1/6
[2]; 25 μg/kg
  T/C vs. LX-1: 0.00
[2]; [14]
  activity vs. LX-1 compared with Compound 6: more active
[3]; 12.5 μg/kg
  T/C vs. M-5076: 204
  survivors, M-5076: 5/10
[3]; [14]
  activity vs. M-5076 compared with Compound 6: more active
[4]; 37.5 μg/kg
  T/C vs. MX-1: 0.05
[4]; [14]
  activity vs. MX-1 compared with Compound 6: more active
[5]; 12.5 μg/kg
  T/C vs. B-16: 253
[5]; [14]
  activity vs. B-16 compared with Compound 6: more active
[6]; 25 μg/kg
  T/C vs. Lewis lung: 0.00
[6]; [14]
  activity vs. Lewis lung compared with Compound 6: more active
[7]
  in vivo activity in mice: exceedingly potent activity in vivo

## COc1cc2c(cc1O)CCN[C@]21CSC2c3c(OC(C)=O)c(C)c4c(c3C(COC1=O)N1C2C2c3c(cc(C)c(OC)c3O)CC([C@@H]1O)N2C)OCO4 (stereo partly shown) [Compound 2]
[7]
  in vivo activity in mice: exceedingly potent activity in vivo

## COc1cc2c(cc1O)CCN[C@]21CSC2c3c(OC(C)=O)c(C)c4c(c3C(COC1=O)N1C2C2c3c(cc(C)c(OC)c3O)CC([C@@H]1O)N2C=O)OCO4 (stereo partly shown) [Compound 3, N^12 -Formyl Et 729]
[8]; Mus musculus, P388
  IC50: 0.5 ng/mL (≈ 0.644 nM)
[9]; A549
  IC50: 2 ng/mL (≈ 2.58 nM)
[10]
  IC50: 2 ng/mL (≈ 2.58 nM)
[11]; Primates
  IC50: 5 ng/mL (≈ 6.44 nM)

## COc1c(C)cc2c(c1O)C1NC(C2)[C@H](O)N2C3COC(=O)[C@]4(CSC(c5c(OC(C)=O)c(C)c6c(c53)OCO6)C12)NCCc1c4[nH]c2ccccc12 (stereo partly shown) [Compound 6]
[12]; at 2.5 μg/ml
  inhibition at 2.5 µg/mL: 90%
[1]; 25 μg/kg day
  T/C vs. P-388: > 265
  survivors, P-388: 2/6
[1]; comparison Compound 6 vs. Compound 1
  activity vs. P-388 compared with Compound 1: more effective than Compound 1
[2]; 50 μg/kg, mice
  T/C vs. LX-1: 200
[3]; mice
  activity vs. M-5076 ovarian sarcoma: slightly active
[4]; mice
  activity vs. MX-1 human mammary carcinoma xenograft: slightly active
[7]
  in vivo activity in mice: highly active in vivo in mice

## COc1c(C)cc2c(c1O)C1C3C4SC[C@]5(NCCc6c5[nH]c5ccccc65)C(=O)OCC(c5c6c(c(C)c(OC(C)=O)c54)OCO6)N3[C@@H](O)C(C2)N1C (stereo partly shown) [Compound 7]
[12]; at 5.0 μg/ml
  inhibition at 5 µg/mL: 90%

## COC1=C(C)C(=O)C2=C(C1=O)C(CO)N1C(O)C3CC4C(C1C2N1CCOC41)N3C (stereo not shown) [naphthyridinomycin]
[13]
  reactions with DNA: reversible reactions

## COC1=C(C)C(=O)C2=C(C1=O)C1C3CC4=C(C(=O)C(OC)=C(C)C4=O)C(CNC(=O)C(C)=O)N3C(C#N)C(C2)N1C (stereo not shown) [saframycin A]
[13]
  reactions with DNA: reversible reactions

## Et 743 N^12 -Oxide [Compound 5]
[8]
  IC50 against P-388: 1 ng/mL
[9]
  IC50 against A-549: 2.5 ng/mL
[10]
  IC50 against HT-29: 2.5 ng/mL
[11]
  IC50 against CV-1: 2.5 ng/mL
